The term IC50 denotes the point on the concentration scale where inhibition reaches its midpoint.

Data on eleven compounds can be found in patent US5604242A, “Heterocyclic chemistry” (Novo Nordisk A/S, priority 1993, dated 1997).

The test system of one data set is [^3 H]-GABA uptake. Briefly: in vitro inhibition of [3H]-GABA uptake (method of Fjalland), rat cortical tissue homogenate. Format: biochemical, Male wistar rat. The settings on record: 40 mM tris HCl buffer pH 7.5, 60 minutes at 30° C. How it is done: Values for in vitro inhibition of [^3 H]-GABA uptake for the invention compounds were assessed essentially by the method of Fjalland (Acta Pharmacol. Toxicol. 1978, 42, 73-76). Male wistar rat cortical tissue was gently homogenized by hand using a glass/PTFE homogenizer in 10 volumes of 0.32M sucrose. Incubation was performed in a 40 mM tris HCl buffer (pH 7.5 at 30° C.) containing […], 4 mM MgSO4, […] and 10 mM glucose, for 60 minutes at 30° C. Values for inhibition of GABA uptake for some representative compounds are recorded in Table I.

The test system of another data set is GABA uptake. The note with it: cited from earlier work; for oral activity as inhibitor of GABA uptake: Yunger et al., J.Pharm.Exp.Ther. 1984, 228, 109.
For data set [1] the following is noted: background, in words; cited from earlier work.

SMILES strings stand for the structures. Structures can show the parent of a compound that is named as a salt.

Consider `O=C(O)[C@@H]1CCCN(CCOC/C(=C/c2ccccc2)c2ccccc2)C1` [Example 5, E-(R)-1-(2-((2,3-Diphenyl-2-propen-1-yl)oxy)ethyl)-3-piperidinecarboxylic acid hydrochloride], for which the IC50 in data set [^3 H]-GABA uptake came out at 495 nM. In other words, the sub-micromolar range.

In data set [^3 H]-GABA uptake, `O=C(O)[C@@H]1CCCN(CCOCc2ccc3ccccc3c2-c2ccccc2)C1` [Example 3, (R)-1-(2-((1-Phenyl-2-naphthyl)methoxy)ethyl)-3-piperidinecarboxylic acid hydrochloride] had a concentration for half-maximal inhibition (IC50) of 6400 nM.

As to `O=C(O)C1CCCN(CCC=C(c2ccccc2)c2cccs2)C1` (stereo not drawn) [SK&F 100604J, N-(4-phenyl-4-(2-thienyl)-3-buten-1-yl)nipecotic acid], the “oral activity as inhibitor of GABA uptake” value (from here on “oral activity as inhibitor”) with GABA uptake is “orally active inhibitors of GABA uptake”.

Consider `O=C(O)C1=CCCN(CCC=C(c2ccccc2)c2ccccc2)C1` [SK&F 100330A, N-(4,4-diphenyl-3-buten-1-yl)guvacine], for which, in the data set with GABA uptake, the “oral activity as inhibitor” value was “orally active inhibitors of GABA uptake”.

With `O=C(O)C1CCCN(CCC=C(c2ccccc2)c2ccccc2)C1` (stereo not drawn) [SK&F 89976A, N-(4,4-diphenyl-3-buten-1-yl)nipecotic acid], in the data set on GABA uptake, the “oral activity as inhibitor” value was “orally active inhibitors of GABA uptake”.

With `O=C(O)C1CCCN(CCOCCCc2ccccc2)C1` (stereo not drawn) [Example 1, 1-(2-(3-Phenyl-1-propyloxy)ethyl)-3-piperidinecarboxylic acid hydrochloride], half-maximal inhibition in data set [^3 H]-GABA uptake (IC50) required 4500 nM.

Take `O=C(O)C1CCCNC1` (stereo not drawn) [nipecotic acid, 3-piperidinecarboxylic acid]: in data set [1], the “ability to cross the blood-brain barrier” value is “unable to cross the blood-brain barrier”. Besides, the “inhibition of GABA uptake from the synaptic cleft into presynaptic nerve terminals and glial cells” value in the data set with GABA uptake (background, in words) was “well-known and potent inhibitor of GABA uptake”.

On to `O=C(O)[C@@H]1CCCN(CCOCc2ccccc2Cc2ccccc2)C1` [Example 2, (R)-1-(2-(2-Benzylbenzyloxy)ethyl)-3-piperidinecarboxylic acid hydrochloride], for which the IC50 in data set [^3 H]-GABA uptake stood at 325 nM.

In data set [^3 H]-GABA uptake, `O=C(O)[C@@H]1CCCN(CCOCc2ccccc2-c2ccccc2)C1` [Example 4, (R)-1-(2-(2-Phenylbenzyloxy)ethyl)-3-piperidinecarboxylic acid hydrochloride] registered an IC50 of 338 nM.

For the compound `O=C(O)[C@@H]1CCCN(CCOC/C(=C\c2ccccc2)c2ccccc2)C1` [Example 6, Z-(R)-1-(2-((2,3-Diphenyl-2-propen-1-yl)oxy)ethyl)-3-piperidinecarboxylic acid hydrochloride], the IC50 in data set [^3 H]-GABA uptake is 2000 nM.

For `O=C(O)CC1CCN(CCC=C(c2ccccc2)c2ccccc2)C1` (stereo not drawn) [SK&F 100561, N-(4,4-diphenyl-3-buten-1-yl)-homo-β-proline], in the data set with GABA uptake, the “oral activity as inhibitor” value is on record as “orally active inhibitors of GABA uptake”.
